Measurements as given in US11278682B2, “Device and method for aerosolized delivery of substance to a natural orifice of the body” (SIPNOSE LTD., priority 2014, dated 2022).
Values joined by “and” are separate entries in the source; they are usually repeats but may differ in a detail not shown here. Equal entries are not always repeated.

System: patients
Experiment: Midazolam pre-medication sedation (BIS EEG monitoring), 1.4 mg, SipNose vs MAD Nasal atomizer
Assay type: in vivo, human
Conditions: for Positive Sedation / Adverse events / Level of minimum BIS / Onset time: individual patients 1 and 2
Method: Comparison with MAD (using a 1 mg/ml solution): For a pre-medication procedure with MAD atomizer, in order to achieve the desired dose of 1.4 mg Midazolam, the delivery device was delivered to one nostril and an aliquot of Midazolam within a volume of 1.4 ml was delivered. For SipNose device delivery the Midazolam was delivered in 2 separate aliquots of 0.7 ml, one to each nostril.
In order to determine the efficacy of anesthetization a BIS EEG monitoring was used, where the BIS values for brain activity are calculated from the EEG activity. Awake, unsedated individuals typically have BIS values ≥97. Mildly sedated individuals typically have BIS values in the 80's, moderately sedated individuals typically have BIS values in the 70's, while fully sedated individuals typically have BIS values below about 70; BIS values between about 45 and about 60 are commonly used for general anesthesia during the maintenance phase of an operation.
Two comparisons were made between the commercial device and the present, SipNose, device. In the first, 3 mg of Midazolam was administered and the commercial device was a commercial nasal pump (positive displacement), in the second, 1.4 mg of Midazolam was administered and the commercial device was a MAD applicator.
In the second comparison, the total dose of Midazolam was 1.4 mg in a total volume of carrier of 1.4 ml. For the SipNose device, it was administered in two aliquots of 0.7 ml, whereas it was administered in one aliquot for the commercial MAD Nasal atomizer from Wolfe Tory. Midozolam was administered to four patients, two with the SipNose device and two with the commercial MAD device.

[1] = commercial MAD Nasal atomizer, 1.4 mg

SMILES: Cc1ncc2n1-c1ccc(Cl)cc1C(c1ccccc1F)=NC2 [Midazolam]
- sleeping score by observation (SipNose administration, 1.4 mg): 3
- Positive Sedation (SipNose device, 1.4 mg in two aliquots of 0.7 ml): Yes
- Adverse events (SipNose device, 1.4 mg): No
- Level of minimum BIS (SipNose device, 1.4 mg): 84
- Onset time (SipNose device, 1.4 mg): 3 min and 5 min
- Positive Sedation (commercial MAD Nasal atomizer, 1.4 mg in one aliquot): Limited and No
- Adverse events [1]: No
- Level of minimum BIS [1]: 83 and 92
- Onset time [1]: 20 min and 8 min
- sleeping score by observation (average) (commercial device, 1.4 mg): 1.5
